Measured values: patent publication US20050112573A1, “Method of detecting toxic substance” (priority 2001, published 2005)

System: yeast genes (level of expressed mRNA)
Assay: DNA chip analysis of expressed mRNA of yeast genes after 2 h culture with a toxic chemical substance
Format: cell-based, Saccharomyces cerevisiae S288C
Outline: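 Values are treated-to-control fluorescence ratios from a whole-yeast-genome DNA chip (65° C, over 12 h hybridization) using Cy3/Cy5-labelled cDNA from mRNA. Log-phase S288C cells in YPD at 25° C were exposed 2 h to a toxicant at sublethal, growth-inhibiting concentration.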

manganese ethylenebis(dithiocarbamate) [(8)]
0.9: The level of expressed mRNA in the presence of chemical substance/in the absence of chemical substance (yeast gene YKR009C) | The level of expressed mRNA in the presence of chemical substance/The level of expressed mRNA in the absence of chemical substance (yeast gene YLR120C) | The level of expressed mRNA in the presence of chemical substance/The level of expressed mRNA in the absence of chemical substance (yeast gene YLR178C) | The level of expressed mRNA in the presence of chemical substance/The level of expressed mRNA in the absence of chemical substance (yeast gene YMR104C)
1.6: The level of expressed mRNA in the presence of chemical substance/The level of expressed mRNA in the absence of chemical substance (yeast gene YMR226C) | The level of expressed mRNA in the presence of chemical substance/ (yeast gene YMR316W, ratio to control without chemical substance, 2 h culture)
1.5: The level of expressed mRNA in the presence of chemical substance/The level of expressed mRNA in the absence of chemical substance (yeast gene YKL165C) | The level of expressed mRNA in the presence of chemical substance/ (yeast gene YMR097C, ratio to control without chemical substance, 2 h culture) | The level of expressed mRNA in the presence of chemical substance/in the absence of chemical substance (yeast gene YMR267W)
1.1: The level of expressed mRNA in the presence of chemical substance/ (yeast gene YKL086W, ratio to control without chemical) | The level of expressed mRNA in the presence of chemical substance/ (yeast gene YLR054C, ratio to control without chemical substance, 2 h culture) | The level of expressed mRNA in the presence of chemical substance/The level of expressed mRNA in the absence of chemical substance (yeast gene YLR136C) | The level of expressed mRNA in the presence of chemical substance/ (yeast gene YLR149C, ratio to control without chemical substance, 2 h culture) | The level of expressed mRNA in the presence of chemical substance/ (yeast gene YMR067C, ratio to control without chemical substance, 2 h culture) | The level of expressed mRNA in the presence of chemical substance/ (yeast gene YMR191W, ratio to control without chemical substance, 2 h culture) | The level of expressed mRNA in the presence of chemical substance/The level of expressed mRNA in the absence of chemical substance (yeast gene YMR219W) | The level of expressed mRNA in the presence of chemical substance/in the absence of chemical substance (yeast gene YMR278W) | The level of expressed mRNA in the presence of chemical substance/The level of expressed mRNA in the absence of chemical substance (yeast gene YNL006W)
0.7: The level of expressed mRNA in the presence of chemical substance/ (yeast gene YKL153W, ratio to control without chemical substance, 2 h culture) | The level of expressed mRNA in the presence of chemical substance/The level of expressed mRNA in the absence of chemical substance (yeast gene YLR356W) | The level of expressed mRNA in the presence of chemical substance/The level of expressed mRNA in the absence of chemical substance (yeast gene YLR391W) | The level of expressed mRNA in the presence of chemical substance/ (yeast gene YML117W, ratio to control without chemical substance, 2 h culture)
8.1: The level of expressed mRNA in the presence of chemical substance/ (yeast gene YLR460C, ratio to control without chemical substance, 2 h culture)
3.9: The level of expressed mRNA in the presence of chemical substance/ (yeast gene YMR090W, ratio to control without chemical substance, 2 h culture)
1.3: The level of expressed mRNA in the presence of chemical substance/ (yeast gene YKR091W, ratio to control without chemical) | The level of expressed mRNA in the presence of chemical substance/The level of expressed mRNA in the absence of chemical substance (yeast gene YLR250W) | The level of expressed mRNA in the presence of chemical substance/ (yeast gene YMR107W, ratio to control without chemical substance, 2 h culture)
1.0: The level of expressed mRNA in the presence of chemical substance/ (yeast gene YKL151C, ratio to control without chemical substance, 2 h culture) | The level of expressed mRNA in the presence of chemical substance/ (yeast gene YLR194C, ratio to control without chemical) | The level of expressed mRNA in the presence of chemical substance/ (yeast gene YLR324W, ratio to control without chemical substance, 2 h culture) | The level of expressed mRNA in the presence of chemical substance/ (yeast gene YLR350W, ratio to control without chemical substance, 2 h culture) | The level of expressed mRNA in the presence of chemical substance/in the absence of chemical substance (yeast gene YLR375W) | The level of expressed mRNA in the presence of chemical substance/The level of expressed mRNA in the absence of chemical substance (yeast gene YLR429W) | The level of expressed mRNA in the presence of chemical substance/The level of expressed mRNA in the absence of chemical substance (yeast gene YMR004W) | The level of expressed mRNA in the presence of chemical substance/The level of expressed mRNA in the absence of chemical substance (yeast gene YMR094W) | The level of expressed mRNA in the presence of chemical substance/ (yeast gene YMR102C, ratio to control without chemical substance, 2 h culture) | The level of expressed mRNA in the presence of chemical substance/in the absence of chemical substance (yeast gene YMR293C) | The level of expressed mRNA in the presence of chemical substance/ (yeast gene YMR295C, ratio to control without chemical substance, 2 h culture)
1.8: The level of expressed mRNA in the presence of chemical substance/ (yeast gene YMR180C, ratio to control without chemical substance, 2 h culture) | The level of expressed mRNA in the presence of chemical substance/ (yeast gene YNL044W, ratio to control without chemical substance, 2 h culture)
0.5: The level of expressed mRNA in the presence of chemical substance/The level of expressed mRNA in the absence of chemical substance (yeast gene YKL096W)
0.8: The level of expressed mRNA in the presence of chemical substance/The level of expressed mRNA in the absence of chemical substance (yeast gene YMR275C) | The level of expressed mRNA in the presence of chemical substance/The level of expressed mRNA in the absence of chemical substance (yeast gene YMR276W) | The level of expressed mRNA in the presence of chemical substance/The level of expressed mRNA in the absence of chemical substance (yeast gene YNL007C)
1.9: The level of expressed mRNA in the presence of chemical substance/ (yeast gene YMR184W, ratio to control without chemical substance, 2 h culture)
1.2: The level of expressed mRNA in the presence of chemical substance/ (yeast gene YKL195W, ratio to control without chemical substance, 2 h culture) | The level of expressed mRNA in the presence of chemical substance/ (yeast gene YLR152C, ratio to control without chemical substance, 2 h culture) | The level of expressed mRNA in the presence of chemical substance/in the absence of chemical substance (yeast gene YLR351C) | The level of expressed mRNA in the presence of chemical substance/ (yeast gene YMR095C, ratio to control without chemical) | The level of expressed mRNA in the presence of chemical substance/The level of expressed mRNA in the absence of chemical substance (yeast gene YMR314W)
2.2: The level of expressed mRNA in the presence of chemical substance/The level of expressed mRNA in the absence of chemical substance (yeast gene YLR327C)
1.4: The level of expressed mRNA in the presence of chemical substance/The level of expressed mRNA in the absence of chemical substance (yeast gene YKL193C) | The level of expressed mRNA in the presence of chemical substance/The level of expressed mRNA in the absence of chemical substance (yeast gene YLR362W) | The level of expressed mRNA in the presence of chemical substance/ (yeast gene YLR387C, ratio to control without chemical substance, 2 h culture) | The level of expressed mRNA in the presence of chemical substance/ (yeast gene YMR009W, ratio to control without chemical substance, 2 h culture)
